Source: patent US7138361B2, “Herbicidal heterocycles” (E. I. du Pont de Nemours and Company, priority 2000, dated 2006)

Assays:
Type in all cases: in vivo
[1] = system: cocklebur (Xanthium strumarium); assay: Test B preemergence
In short: (§1)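 Visual injury scores, 0 = no effect to 100 = complete control, assigned against controls after 13 to 15 days in the greenhouse. Compounds formulated in non-phytotoxic solvent plus surfactant and applied to soil after planting (pre) or onto foliage of 1- to 4-leaf plants (post).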

[2] = system: lambsquarters (Chenopodium album); assay: Test B preemergence
In short: as §1

[3] = system: crabgrass (Digitaria sanguinalis); assay: Test B preemergence
In short: as §1

[4] = system: velvetleaf (Abutilon theophrasti); assay: Test B preemergence
In short: as §1

corn (Zea mays) [5] = assay: Test B preemergence
In short: as §1

[6] = system: barnyardgrass (Echinochloa crus-galli); assay: Test B preemergence
In short: as §1

[7] = system: morning glory (Ipomoea hederacea); assay: Test B preemergence
In short: as §1

[8] = system: pigweed (Amaranthus retroflexus); assay: Test B preemergence
In short: as §1

[9] = system: Surinam grass (Brachiaria decumbens); assay: Test B preemergence
In short: as §1

[10] = system: giant foxtail (Setaria faberii); assay: Test B preemergence
In short: as §1

rice (Oryza saliva) [11] = assay: Test B preemergence
In short: as §1

[12] = system: smallflower flatsedge (Cyperus difformis); assay: Test B flooded paddy test; conditions: Rate 1000 g/ha, scale of 0 to 100 where 0 is no effect and 100 is complete control, visually evaluated after 13 to 15 days
In short: (§2)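 Plants were grown to the 2-leaf stage in flooded paddy conditions before treatment with the formulated test chemicals. After 13 to 15 days in a greenhouse, each species was visually compared with untreated controls and rated from 0 (no effect) to 100 (complete control).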

[13] = system: barnyardgrass (Echinochloa crus-galli); assay: Test B flooded paddy test; conditions: Rate 1000 g/ha, scale of 0 to 100 where 0 is no effect and 100 is complete control, visually evaluated after 13 to 15 days
In short: as §2

[14] = system: duck salad (Heteranthera limosa); assay: Test B flooded paddy test; conditions: Rate 1000 g/ha, scale of 0 to 100 where 0 is no effect and 100 is complete control, visually evaluated after 13 to 15 days
In short: as §2

rice (Oryza saliva) [15] = assay: Test B flooded paddy test; conditions: Rate 1000 g/ha, scale of 0 to 100 where 0 is no effect and 100 is complete control, visually evaluated after 13 to 15 days
In short: as §2

[16] = system: smallflower flatsedge (Cyperus difformis); assay: Test C flooded paddy test; conditions: for Flatsedge plant response rating: Flooded Paddy, scale 0 to 100, 0 no effect, 100 complete control; for Plant response rating, Flatsedge: flooded paddy test, scale 0 to 100 (0 no effect, 100 complete control)
In short: (§3)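 Response on a 0-to-100 scale (no effect to complete control) was assessed by eye versus controls. Plants had reached 2 leaves when treated in flooded paddy conditions. The assessment took place after 12–14 days of greenhouse growth.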

[17] = system: barnyardgrass (Echinochloa crus-galli); assay: Test C flooded paddy test; conditions: for Barnyardgrass plant response rating: Flooded Paddy, scale 0 to 100, 0 no effect, 100 complete control; for Plant response rating, Barnyardgrass: flooded paddy test, scale 0 to 100 (0 no effect, 100 complete control)
In short: as §3

[18] = system: duck salad (Heteranthera limosa); assay: Test C flooded paddy test; conditions: for Ducksalad plant response rating: Flooded Paddy, scale 0 to 100, 0 no effect, 100 complete control; for Plant response rating, Ducksalad: flooded paddy test, scale 0 to 100 (0 no effect, 100 complete control)
In short: as §3

rice (Oryza saliva) [19] = assay: Test C flooded paddy test; conditions: for Rice plant response rating: Flooded Paddy, scale 0 to 100, 0 no effect, 100 complete control; for Plant response rating, Rice: flooded paddy test, scale 0 to 100 (0 no effect, 100 complete control)
In short: as §3

[20] = system: cocklebur (Xanthium strumarium); assay: Test B postemergence; conditions: 13 to 15 days
In short: as §1

[21] = system: blackgrass (Alopecurus myosuroides); assay: Test B postemergence; conditions: 13 to 15 days
In short: as §1

[22] = system: lambsquarters (Chenopodium album); assay: Test B postemergence; conditions: 13 to 15 days
In short: as §1

[23] = system: crabgrass (Digitaria sanguinalis); assay: Test B postemergence; conditions: 13 to 15 days
In short: as §1

[24] = system: velvetleaf (Abutilon theophrasti); assay: Test B postemergence; conditions: 13 to 15 days
In short: as §1

corn (Zea mays) [25] = assay: Test B postemergence; conditions: 13 to 15 days
In short: as §1

[26] = system: barnyardgrass (Echinochloa crus-galli); assay: Test B postemergence; conditions: 13 to 15 days
In short: as §1

wild oat (Avena fatua) = assay: Test B postemergence; conditions: 13 to 15 days
In short: as §1

[27] = system: morning glory (Ipomoea hederacea); assay: Test B postemergence; conditions: 13 to 15 days
In short: as §1

[28] = system: pigweed (Amaranthus retroflexus); assay: Test B postemergence; conditions: 13 to 15 days
In short: as §1

[29] = system: Surinam grass (Brachiaria decumbens); assay: Test B postemergence; conditions: 13 to 15 days
In short: as §1

[30] = system: giant foxtail (Setaria faberii); assay: Test B postemergence; conditions: 13 to 15 days
In short: as §1

[31] = system: wheat (Triticum aestivum); assay: Test B postemergence; conditions: 13 to 15 days
In short: as §1

[32] = Preemergence, Rate 500 g/ha, scale 0 to 100, 0 no effect, 100 complete control
[33] = preemergence, Rate 125 g/ha, scale of 0 to 100 where 0 is no effect and 100 is complete control, 13 to 15 days
[34] = Rate 125 g/ha, scale 0 (no effect) to 100 (complete control)
[35] = Rate 500 g/ha, scale 0 to 100, 0 is no effect, 100 is complete control
[36] = preemergence, Rate 125 g/ha, scale 0 to 100, 0 no effect, 100 complete control

Compound: CC(C)(C)c1ccn(C2CCN(c3cc(C(F)(F)F)cc(C(F)(F)F)c3)C2=O)n1 (stereo not shown) [Compound 54]
- Plant response rating, Cocklebur [1, 32]: 0
- Plant response rating, Cocklebur [1, 33]: 0
- Plant response rating, Lambsquarters [2, 32]: 0
- Plant response rating, Lambsquarters [2, 33]: 0
- Plant response rating, Crabgrass [3, 32]: 0
- Plant response rating, Crabgrass [3, 33]: 0
- Plant response rating, Velvetleaf [4, 32]: 0
- Plant response rating, Velvetleaf [4, 33]: 0
- Plant response rating, Corn (corn (Zea mays) [5]; [32]): 0
- Plant response rating, Corn (corn (Zea mays) [5]; [33]): 0
- Plant response rating, Barnyardgrass [6, 32]: 0
- Plant response rating, Barnyardgrass [6, 33]: 0
- Plant response rating, Morningglory [7, 32]: 0
- Plant response rating, Morningglory [7, 33]: 0
- Plant response rating, Pigweed [8, 32]: 0
- Plant response rating, Pigweed [8, 33]: 0
- Plant response rating, Surinam grass [9, 32]: 0
- Plant response rating, Surinam grass [9, 33]: 0
- Plant response rating, Foxtail, Giant [10, 32]: 0
- Plant response rating, Foxtail, Giant [10, 33]: 0
- Plant response rating, Rice (rice (Oryza saliva) [11]; [32]): 0
- Plant response rating, Rice (rice (Oryza saliva) [11]; [33]): 0
- Plant response rating, Flatsedge [12]: 90
- Plant response rating, Barnyardgrass [13]: 80
- Plant response rating, Ducksalad [14]: 30
- Plant response rating, Rice (rice (Oryza saliva) [15]): 0
- Flatsedge plant response rating ([16]; Rate 250 g/ha): 0
- Flatsedge plant response rating ([16]; Rate 500 g/ha): 80
- Plant response rating, Flatsedge ([16]; Rate 62 g/ha): 0
- Plant response rating, Flatsedge ([16]; Rate 125 g/ha): 0
- Barnyardgrass plant response rating ([17]; Rate 250 g/ha): 20
- Barnyardgrass plant response rating ([17]; Rate 500 g/ha): 20
- Plant response rating, Barnyardgrass ([17]; Rate 62 g/ha): 0
- Plant response rating, Barnyardgrass ([17]; Rate 125 g/ha): 0
- Ducksalad plant response rating ([18]; Rate 250 g/ha): 0
- Ducksalad plant response rating ([18]; Rate 500 g/ha): 0
- Plant response rating, Ducksalad ([18]; Rate 62 g/ha): 0
- Plant response rating, Ducksalad ([18]; Rate 125 g/ha): 0
- Rice plant response rating (rice (Oryza saliva) [19]; Rate 250 g/ha): 0
- Rice plant response rating (rice (Oryza saliva) [19]; Rate 500 g/ha): 0
- Plant response rating, Rice (rice (Oryza saliva) [19]; Rate 62 g/ha): 0
- Plant response rating, Rice (rice (Oryza saliva) [19]; Rate 125 g/ha): 0
- Plant response rating, Cocklebur [20, 34]: 0
- Plant response rating, Cocklebur [20, 35]: 20
- Plant response rating, Blackgrass [21, 34]: 0
- Plant response rating, Blackgrass [21, 35]: 0
- Plant response rating, Lambsquarters [22, 34]: 0
- Plant response rating, Lambsquarters [22, 35]: 30
- Plant response rating, Crabgrass [23, 34]: 0
- Plant response rating, Crabgrass [23, 35]: 0
- Plant response rating, Velvetleaf [24, 34]: 0
- Plant response rating, Velvetleaf [24, 35]: 0
- Plant response rating, Corn (corn (Zea mays) [25]; [34]): 0
- Plant response rating, Corn (corn (Zea mays) [25]; [35]): 0
- Plant response rating, Barnyardgrass [26, 34]: 0
- Plant response rating, Barnyardgrass [26, 35]: 0
- Plant response rating, Wild Oat (wild oat (Avena fatua); [34]): 0
- Plant response rating, Wild Oat (wild oat (Avena fatua); [35]): 0
- Plant response rating, Morningglory [27, 34]: 0
- Plant response rating, Morningglory [27, 35]: 20
- Plant response rating, Pigweed [28, 34]: 0
- Plant response rating, Pigweed [28, 35]: 0
- Plant response rating, Surinam grass [29, 34]: 0
- Plant response rating, Surinam grass [29, 35]: 0
- Plant response rating, Foxtail, Giant [30, 34]: 0
- Plant response rating, Foxtail, Giant [30, 35]: 0
- Plant response rating, Wheat [31, 34]: 0
- Plant response rating, Wheat [31, 35]: 0

Compound: CC(C)c1ccn(C2SCN(c3cccc(C(F)(F)F)c3)C2=O)n1 (stereo not shown) [Compound 23]
- Plant response rating, Cocklebur [1, 32]: 20
- Plant response rating, Cocklebur [1, 36]: 0
- Plant response rating, Lambsquarters [2, 32]: 100
- Plant response rating, Lambsquarters [2, 36]: 100
- Plant response rating, Crabgrass [3, 32]: 100
- Plant response rating, Crabgrass [3, 36]: 70
- Plant response rating, Velvetleaf [4, 32]: 0
- Plant response rating, Velvetleaf [4, 36]: 0
- Plant response rating, Corn (corn (Zea mays) [5]; [32]): 0
- Plant response rating, Corn (corn (Zea mays) [5]; [36]): 0
- Plant response rating, Barnyardgrass [6, 32]: 100
- Plant response rating, Barnyardgrass [6, 36]: 0
- Plant response rating, Morningglory [7, 32]: 60
- Plant response rating, Morningglory [7, 36]: 0
- Plant response rating, Pigweed [8, 32]: 100
- Plant response rating, Pigweed [8, 36]: 100
- Plant response rating, Surinam grass [9, 32]: 20
- Plant response rating, Surinam grass [9, 36]: 0
- Plant response rating, Foxtail, Giant [10, 32]: 50
- Plant response rating, Foxtail, Giant [10, 36]: 50
- Plant response rating, Rice (rice (Oryza saliva) [11]; [32]): 30
- Plant response rating, Rice (rice (Oryza saliva) [11]; [36]): 0
- Plant response rating, Flatsedge [12]: 0
- Plant response rating, Barnyardgrass [13]: 0
- Plant response rating, Ducksalad [14]: 100
- Plant response rating, Rice (rice (Oryza saliva) [15]): 0
- Flatsedge plant response rating ([16]; Rate 250 g/ha): 100
- Flatsedge plant response rating ([16]; Rate 500 g/ha): 100
- Plant response rating, Flatsedge ([16]; Rate 62 g/ha): 100
- Plant response rating, Flatsedge ([16]; Rate 125 g/ha): 100
- Barnyardgrass plant response rating ([17]; Rate 250 g/ha): 100
- Barnyardgrass plant response rating ([17]; Rate 500 g/ha): 100
- Plant response rating, Barnyardgrass ([17]; Rate 62 g/ha): 80
- Plant response rating, Barnyardgrass ([17]; Rate 125 g/ha): 80
- Ducksalad plant response rating ([18]; Rate 250 g/ha): 100
- Ducksalad plant response rating ([18]; Rate 500 g/ha): 100
- Plant response rating, Ducksalad ([18]; Rate 62 g/ha): 50
- Plant response rating, Ducksalad ([18]; Rate 125 g/ha): 80
- Rice plant response rating (rice (Oryza saliva) [19]; Rate 250 g/ha): 70
- Rice plant response rating (rice (Oryza saliva) [19]; Rate 500 g/ha): 100
- Plant response rating, Rice (rice (Oryza saliva) [19]; Rate 62 g/ha): 20
- Plant response rating, Rice (rice (Oryza saliva) [19]; Rate 125 g/ha): 20
- Plant response rating, Cocklebur [20, 34]: 40
- Plant response rating, Cocklebur [20, 35]: 80
- Plant response rating, Blackgrass [21, 34]: 0
- Plant response rating, Blackgrass [21, 35]: 20
- Plant response rating, Lambsquarters [22, 34]: 80
- Plant response rating, Lambsquarters [22, 35]: 100
- Plant response rating, Crabgrass [23, 34]: 20
- Plant response rating, Crabgrass [23, 35]: 40
- Plant response rating, Velvetleaf [24, 34]: 20
- Plant response rating, Velvetleaf [24, 35]: 30
- Plant response rating, Corn (corn (Zea mays) [25]; [34]): 20
- Plant response rating, Corn (corn (Zea mays) [25]; [35]): 50
- Plant response rating, Barnyardgrass [26, 34]: 20
- Plant response rating, Barnyardgrass [26, 35]: 90
- Plant response rating, Wild Oat (wild oat (Avena fatua); [34]): 0
- Plant response rating, Wild Oat (wild oat (Avena fatua); [35]): 0
- Plant response rating, Morningglory [27, 34]: 20
- Plant response rating, Morningglory [27, 35]: 80
- Plant response rating, Pigweed [28, 34]: 70
- Plant response rating, Pigweed [28, 35]: 100
- Plant response rating, Surinam grass [29, 34]: 20
- Plant response rating, Surinam grass [29, 35]: 20
- Plant response rating, Foxtail, Giant [30, 34]: 20
- Plant response rating, Foxtail, Giant [30, 35]: 80
- Plant response rating, Wheat [31, 34]: 0
- Plant response rating, Wheat [31, 35]: 0
